Test results as given in patent publication US9550772B2, “Azaindole derivatives as multi kinase inhibitors” (ORIBASE PHARMA, priority 2012, dated 2017).
pEC50: −log10 of the molar value. Like-named read-outs stand apart in the source and are kept apart here.

Experiments:
EGFR (ErbB1) = target: T1, EGFR (ErbB1) (Homo sapiens, UniProt P00533); experiment: In vitro kinase assay (Z'-LYTE, Invitrogen); assay type: biochemical; settings: compound at 100 nM, ATP Km apparent, read-out: % of inhibition of the kinase compared to the control
T1 construct: purchased Invitrogen
Description: (§1) The inhibitory activity of the compounds on 7 kinases (BRAF, EGFR (ErbB1), EGFR (ErbB1) T790M L858R, FGFR2, KDR (VEGFR2), PDGFRA (PDGFR alpha), SRC) was evaluated by Invitrogen using the Z′-LYTE® technology. Briefly, the Z′-LYTE® biochemical assay employs a fluorescence-based, coupled-enzyme format and is based on the differential sensitivity of phosphorylated and non-phosphorylated peptides to proteolytic cleavage. The peptide substrate is labeled with two fluorophores—one at each end—that make up a FRET pair. A ratiometric method, which calculates the ratio (the Emission Ratio) of donor emission to acceptor emission after excitation of the donor fluorophore at 400 nm, is used to quantitate reaction progress.
(§2) The compounds are screened in 1% DMSO (final) in the well. For 10 point titrations, 3-fold serial dilutions are conducted from the starting concentration. All Peptide/Kinase Mixtures are diluted to a 2× working concentration in the appropriate Kinase Buffer. All ATP Solutions are diluted to a 4× working concentration in Kinase Buffer (50 mM HEPES pH 7.5, 0.01% BRIJ-35, 10 mM MgCl2, 1 mM EGTA). ATP Km apparent is previously determined using a Z′-LYTE® assay.
(§3) Each compound was incubated at a concentration of 100 nM and the tables 21 to 27 summarize the results obtained showing the inhibitory power of a compound.

PDGFRA (PDGFR alpha) = target: T2, PDGFRA (PDGFR alpha) (Homo sapiens, UniProt P16234); experiment: In vitro kinase assay (Z'-LYTE, Invitrogen); assay type: biochemical; settings: compound at 100 nM, ATP Km apparent, read-out: % of inhibition of the kinase compared to the control
T2 construct: purchased Invitrogen
T2 sequence (P16234 24-1089): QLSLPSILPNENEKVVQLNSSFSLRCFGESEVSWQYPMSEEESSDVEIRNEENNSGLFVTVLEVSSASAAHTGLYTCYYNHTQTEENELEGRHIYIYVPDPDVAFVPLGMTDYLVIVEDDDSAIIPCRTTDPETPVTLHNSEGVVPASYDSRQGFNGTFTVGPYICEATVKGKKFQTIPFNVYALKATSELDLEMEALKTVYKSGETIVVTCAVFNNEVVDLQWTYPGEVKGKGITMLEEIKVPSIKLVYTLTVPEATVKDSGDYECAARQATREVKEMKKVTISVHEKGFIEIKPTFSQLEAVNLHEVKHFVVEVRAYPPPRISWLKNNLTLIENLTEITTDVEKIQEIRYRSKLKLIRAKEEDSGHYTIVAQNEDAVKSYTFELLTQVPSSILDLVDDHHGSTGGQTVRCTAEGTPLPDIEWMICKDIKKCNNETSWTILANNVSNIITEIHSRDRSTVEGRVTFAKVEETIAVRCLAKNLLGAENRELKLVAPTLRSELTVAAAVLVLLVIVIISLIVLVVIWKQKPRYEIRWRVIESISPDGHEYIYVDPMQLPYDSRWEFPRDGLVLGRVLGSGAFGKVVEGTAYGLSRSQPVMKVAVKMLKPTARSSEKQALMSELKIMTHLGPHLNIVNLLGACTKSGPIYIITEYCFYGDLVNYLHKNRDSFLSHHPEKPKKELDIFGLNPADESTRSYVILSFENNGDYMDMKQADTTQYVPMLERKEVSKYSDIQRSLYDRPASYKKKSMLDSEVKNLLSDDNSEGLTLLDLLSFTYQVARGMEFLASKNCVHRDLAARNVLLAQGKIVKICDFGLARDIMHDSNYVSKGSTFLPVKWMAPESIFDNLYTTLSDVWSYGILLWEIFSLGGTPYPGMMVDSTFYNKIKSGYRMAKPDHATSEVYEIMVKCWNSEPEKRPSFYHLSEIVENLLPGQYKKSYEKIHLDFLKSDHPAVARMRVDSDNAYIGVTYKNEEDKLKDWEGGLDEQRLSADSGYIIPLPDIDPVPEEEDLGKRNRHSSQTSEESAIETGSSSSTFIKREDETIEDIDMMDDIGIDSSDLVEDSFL
Description: as §1, §2, §3

BRAF = target: T3, BRAF (Homo sapiens, UniProt P15056); experiment: In vitro kinase assay (Z'-LYTE, Invitrogen); assay type: biochemical; settings: compound at 100 nM, ATP Km apparent, read-out: % of inhibition of the kinase compared to the control
T3 construct: purchased Invitrogen
T3 sequence (P15056 whole entry): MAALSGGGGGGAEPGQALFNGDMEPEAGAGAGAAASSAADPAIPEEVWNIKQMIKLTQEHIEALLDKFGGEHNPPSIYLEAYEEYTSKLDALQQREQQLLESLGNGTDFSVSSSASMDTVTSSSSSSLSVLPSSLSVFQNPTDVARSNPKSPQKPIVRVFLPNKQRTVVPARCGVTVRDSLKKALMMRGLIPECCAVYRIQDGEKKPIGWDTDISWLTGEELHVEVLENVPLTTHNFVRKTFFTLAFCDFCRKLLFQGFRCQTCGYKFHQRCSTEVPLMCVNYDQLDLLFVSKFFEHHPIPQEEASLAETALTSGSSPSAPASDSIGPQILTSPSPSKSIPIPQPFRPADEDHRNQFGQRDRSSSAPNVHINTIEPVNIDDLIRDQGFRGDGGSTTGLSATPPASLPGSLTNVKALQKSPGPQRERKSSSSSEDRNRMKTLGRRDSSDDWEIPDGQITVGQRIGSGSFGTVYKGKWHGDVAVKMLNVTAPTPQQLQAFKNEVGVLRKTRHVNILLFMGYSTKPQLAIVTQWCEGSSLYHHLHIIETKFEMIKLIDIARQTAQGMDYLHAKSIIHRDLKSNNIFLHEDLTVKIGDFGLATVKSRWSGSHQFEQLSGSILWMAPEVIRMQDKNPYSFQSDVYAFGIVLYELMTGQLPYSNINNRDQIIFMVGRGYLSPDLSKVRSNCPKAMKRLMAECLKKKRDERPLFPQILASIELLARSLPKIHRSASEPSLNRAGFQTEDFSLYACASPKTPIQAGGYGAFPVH
Description: as §1, §2, §3

KDR (VEGFR2) = target: T4, KDR (VEGFR2) (Homo sapiens, UniProt P35968); experiment: In vitro kinase assay (Z'-LYTE, Invitrogen); assay type: biochemical; settings: compound at 100 nM, ATP Km apparent, read-out: % of inhibition of the kinase compared to the control
T4 construct: purchased Invitrogen
T4 sequence (P35968 20-1356): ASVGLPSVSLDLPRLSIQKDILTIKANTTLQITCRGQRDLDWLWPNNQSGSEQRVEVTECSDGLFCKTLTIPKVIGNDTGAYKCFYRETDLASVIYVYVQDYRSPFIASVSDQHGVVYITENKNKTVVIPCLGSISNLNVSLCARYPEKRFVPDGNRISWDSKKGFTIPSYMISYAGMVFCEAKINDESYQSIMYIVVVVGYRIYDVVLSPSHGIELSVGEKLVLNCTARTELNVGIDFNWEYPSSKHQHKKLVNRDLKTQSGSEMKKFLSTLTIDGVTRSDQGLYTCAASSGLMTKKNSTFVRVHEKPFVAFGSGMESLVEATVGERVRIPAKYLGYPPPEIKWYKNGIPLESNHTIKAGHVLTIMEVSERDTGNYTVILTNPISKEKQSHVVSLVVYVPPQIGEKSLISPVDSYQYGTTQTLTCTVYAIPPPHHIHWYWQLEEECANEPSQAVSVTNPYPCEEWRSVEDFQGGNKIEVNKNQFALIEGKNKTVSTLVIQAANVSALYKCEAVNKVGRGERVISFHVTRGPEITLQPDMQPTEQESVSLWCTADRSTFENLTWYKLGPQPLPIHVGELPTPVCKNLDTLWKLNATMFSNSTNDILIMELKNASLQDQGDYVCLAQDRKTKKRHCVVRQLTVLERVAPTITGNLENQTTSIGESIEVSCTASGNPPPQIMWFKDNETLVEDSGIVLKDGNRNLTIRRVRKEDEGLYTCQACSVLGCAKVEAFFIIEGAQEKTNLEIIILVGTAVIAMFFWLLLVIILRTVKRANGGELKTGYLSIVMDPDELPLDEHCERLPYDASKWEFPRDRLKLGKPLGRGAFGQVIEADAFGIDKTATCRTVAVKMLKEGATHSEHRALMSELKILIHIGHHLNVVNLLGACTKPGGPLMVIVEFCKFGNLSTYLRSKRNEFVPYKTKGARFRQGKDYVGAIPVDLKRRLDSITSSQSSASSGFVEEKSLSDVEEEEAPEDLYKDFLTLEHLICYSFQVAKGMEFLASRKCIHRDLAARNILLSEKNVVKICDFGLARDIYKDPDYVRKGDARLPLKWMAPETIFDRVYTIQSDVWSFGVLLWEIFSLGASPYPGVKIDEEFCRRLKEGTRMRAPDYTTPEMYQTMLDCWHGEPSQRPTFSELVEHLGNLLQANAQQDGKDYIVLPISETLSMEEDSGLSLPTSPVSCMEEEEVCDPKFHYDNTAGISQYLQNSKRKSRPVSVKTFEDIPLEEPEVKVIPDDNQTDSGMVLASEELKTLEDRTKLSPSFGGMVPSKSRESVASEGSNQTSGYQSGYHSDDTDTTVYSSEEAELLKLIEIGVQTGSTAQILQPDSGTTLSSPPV
Description: as §1, §2, §3

SRC = target: T5, SRC (Homo sapiens, UniProt P12931); experiment: In vitro kinase assay (Z'-LYTE, Invitrogen); assay type: biochemical; settings: compound at 100 nM, ATP Km apparent, read-out: % of inhibition of the kinase compared to the control
T5 construct: purchased Invitrogen
T5 sequence (P12931 whole entry): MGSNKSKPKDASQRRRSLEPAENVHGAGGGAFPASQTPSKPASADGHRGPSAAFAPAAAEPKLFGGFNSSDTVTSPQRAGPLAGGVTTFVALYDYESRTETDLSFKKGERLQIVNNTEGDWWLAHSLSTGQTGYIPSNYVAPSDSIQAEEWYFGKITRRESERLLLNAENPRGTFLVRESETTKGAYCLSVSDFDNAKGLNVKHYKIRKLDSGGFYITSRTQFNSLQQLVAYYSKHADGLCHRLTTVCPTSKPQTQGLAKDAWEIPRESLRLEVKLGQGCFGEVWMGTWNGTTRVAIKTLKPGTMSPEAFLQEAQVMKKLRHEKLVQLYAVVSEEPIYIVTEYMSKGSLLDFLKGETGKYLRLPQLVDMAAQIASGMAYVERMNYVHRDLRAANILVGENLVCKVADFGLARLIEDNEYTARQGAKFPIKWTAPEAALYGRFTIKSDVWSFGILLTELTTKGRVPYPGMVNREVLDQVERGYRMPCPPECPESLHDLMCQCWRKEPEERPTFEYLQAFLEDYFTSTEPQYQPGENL
Description: as §1, §2, §3

FGFR2 = target: T6, FGFR2 (Homo sapiens, UniProt P21802); experiment: In vitro kinase assay (Z'-LYTE, Invitrogen); assay type: biochemical; settings: compound at 100 nM, ATP Km apparent, read-out: % of inhibition of the kinase compared to the control
T6 construct: purchased Invitrogen
T6 sequence (P21802 22-821): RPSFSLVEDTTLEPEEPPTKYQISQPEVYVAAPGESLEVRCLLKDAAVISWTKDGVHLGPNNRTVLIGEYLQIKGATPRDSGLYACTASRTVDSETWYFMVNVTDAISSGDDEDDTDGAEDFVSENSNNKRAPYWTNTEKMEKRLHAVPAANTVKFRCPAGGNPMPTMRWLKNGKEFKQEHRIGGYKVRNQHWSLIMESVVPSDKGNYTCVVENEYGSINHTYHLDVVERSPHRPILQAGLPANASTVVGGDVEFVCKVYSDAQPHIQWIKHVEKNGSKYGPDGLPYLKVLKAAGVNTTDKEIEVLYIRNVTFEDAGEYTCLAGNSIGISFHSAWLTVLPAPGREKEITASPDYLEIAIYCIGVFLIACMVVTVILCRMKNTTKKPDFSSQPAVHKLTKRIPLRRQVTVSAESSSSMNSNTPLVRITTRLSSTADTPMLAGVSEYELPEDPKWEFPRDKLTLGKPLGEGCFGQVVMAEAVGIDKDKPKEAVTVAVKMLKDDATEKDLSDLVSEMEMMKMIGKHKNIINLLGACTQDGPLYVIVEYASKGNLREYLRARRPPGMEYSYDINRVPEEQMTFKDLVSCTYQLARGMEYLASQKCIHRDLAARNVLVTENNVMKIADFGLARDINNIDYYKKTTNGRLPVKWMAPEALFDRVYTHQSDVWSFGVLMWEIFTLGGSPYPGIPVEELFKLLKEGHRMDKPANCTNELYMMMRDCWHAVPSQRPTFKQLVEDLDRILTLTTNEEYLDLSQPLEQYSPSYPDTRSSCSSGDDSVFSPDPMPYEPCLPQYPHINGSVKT
Description: as §1, §2, §3

HUVEC cells = experiment: In vitro cell proliferation assay (MTT); assay type: cell-based; settings: Homo sapiens, 72 hr, read-out: EC50, anti-proliferative activity
Description: (§4) Cancer cell lines (5×10^3 cells per well) or HUVEC (1×10^4 cells per well) or HRMEC (1×10^4 cells per well) were distributed in 96-well plates and incubating in duplicate with escalating concentrations (10 nM to 3 μM) of compounds for 72 hr. Cell proliferation was measured using MTT (3[4,5-dimethylthiazol-2-yl]-2,5-diphenyltetrazolium bromide). The EC50 values were calculated from sigmoidal dose-response curves utilizing Prism 5.0 from Graph-Pad Software (GraphPad Software, La Jolla, Calif., USA), with values normalized to those of DMSO-treated control wells (0%) and 1% SDS control wells (100%).

A549 cell line = experiment: In vitro cell proliferation assay (MTT); assay type: cell-based; settings: Homo sapiens, A549, 72 h, read-out: EC50, anti-proliferative activity
Description: as §4

HepG2 cell line = experiment: In vitro cell proliferation assay (MTT); assay type: cell-based; settings: Homo sapiens, HepG2, 72 hr, read-out: EC50, anti-proliferative activity
Description: as §4

HeLa cell line = experiment: In vitro cell proliferation assay (MTT); assay type: cell-based; settings: Homo sapiens, 72 hr, read-out: EC50, anti-proliferative activity
Description: as §4

MDA-MB-231 cell line = experiment: In vitro cell proliferation assay (MTT); assay type: cell-based; settings: Homo sapiens, MDA-MB-231, 72 hr, read-out: EC50, anti-proliferative activity
Description: as §4

SMILES | inhibition at 0.1 µM (EGFR (ErbB1)) [%] | inhibition at 0.1 µM (PDGFRA (PDGFR alpha)) [%] | inhibition at 0.1 µM (BRAF) [%] | inhibition at 0.1 µM (KDR (VEGFR2)) [%] | inhibition at 0.1 µM (SRC) [%] | inhibition at 0.1 µM (FGFR2) [%] | pEC50 (HUVEC cells; EC50 ≧ 1 μM) | pEC50 (A549 cell line; EC50 ≧ 1 μM) | pEC50 (HepG2 cell line; EC50 ≦ 100 nM) | pEC50 (HeLa cell line; EC50 ≧ 1 μM) | pEC50 (MDA-MB-231 cell line; 100 nM < EC50 < 1 μM) | pEC50 (HepG2 cell line; 100 nM < EC50 < 1 μM) | pEC50 (MDA-MB-231 cell line; EC50 ≧ 1 μM) | pEC50 (HUVEC cells; EC50 ≦ 100 nM) | pEC50 (A549 cell line; 100 nM < EC50 < 1 μM) | pEC50 (HepG2 cell line; EC50 ≧ 1 μM) | pEC50 (HeLa cell line; 100 nM < EC50 < 1 μM) | pEC50 (HUVEC cells; 100 nM < EC50 < 1 μM)
CC(=O)c1cc2cc(CCc3cc(NC(=O)Nc4cccc(C(F)(F)F)c4)ccc3C)cnc2[nH]1 [OR0919, 1-{3-[2-(2-Acetyl-1H-pyrrolo[2,3-b]pyridin-5-yl)-ethyl]-4-methyl-phenyl}-3-(3-trifluoromethyl-phenyl)-urea] | < 50 | ≥ 50 | < 50 | < 50 | < 50 | < 50 | ≤ 6.00 | ≤ 6.00 | ≥ 7.00 | ≤ 6.00 | 6.00 to 7.00 | – | – | – | – | – | – | –
CC(=O)c1cc2cc(CCc3cc(NC(=O)Cc4cccc(C(F)(F)F)c4)ccc3C)cnc2[nH]1 [OR0966, N-{3-[2-(2-Acetyl-1H-pyrrolo[2,3-b]pyridin-5-yl)-ethyl]-4-methyl-phenyl}-2-(3-trifluoromethyl-phenyl)-acetamide] | < 50 | < 50 | ≥ 50 | < 50 | < 50 | < 50 | ≤ 6.00 | ≤ 6.00 | – | ≤ 6.00 | – | 6.00 to 7.00 | ≤ 6.00 | – | – | – | – | –
COC(=O)c1cc2cc(CCc3cc(NC(=O)c4ccc(CN5CCN(C)CC5)c(C(F)(F)F)c4)ccc3Cl)cnc2[nH]1 [OR1006, 5-(2-{2-Chloro-5-[4-(4-methyl-piperazin-1-ylmethyl)-3-trifluoromethyl-benzoylamino]-phenyl}ethyl)-1H-pyrrolo[2,3-b]pyridine-2-carboxylic acid methyl ester] | ≥ 50 | – | < 50 | ≥ 50 | – | ≥ 50 | – | – | – | – | 6.00 to 7.00 | – | – | ≥ 7.00 | 6.00 to 7.00 | ≤ 6.00 | 6.00 to 7.00 | –
COC(=O)c1cc2cc(CCc3cc(NC(=O)c4ccc(CN5CCC(N(C)C)C5)c(C(F)(F)F)c4)ccc3Cl)cnc2[nH]1 (centres unmarked) [OR1007, 5-(2-{2-Chloro-5-[4-(3-dimethylamino-pyrrolidin-1-ylmethyl)-3-trifluoromethyl-benzoylamino]-phenyl}-ethyl)-1H-pyrrolo[2,3-b]pyridine-2-carboxylic acid methyl ester] | ≥ 50 | – | < 50 | ≥ 50 | – | ≥ 50 | – | ≤ 6.00 | – | ≤ 6.00 | – | – | ≤ 6.00 | – | – | ≤ 6.00 | – | 6.00 to 7.00
COC(=O)c1cc2cc(CCc3cc(NC(=O)c4cncc(C(F)(F)F)c4)ccc3Cl)cnc2[nH]1 [OR1008, 5-(2-{2-Chloro-5-[(5-trifluoromethyl-pyridine-3-carbonyl)-amino]-phenyl}-ethyl)-1H-pyrrolo[2,3-b]pyridine-2-carboxylic acid methyl ester] | < 50 | – | ≥ 50 | ≥ 50 | – | < 50 | ≤ 6.00 | ≤ 6.00 | – | ≤ 6.00 | – | – | ≤ 6.00 | – | – | ≤ 6.00 | – | –
COC(=O)c1cc2cc(CCc3cccc(NC(=S)Cc4cccc(C(F)(F)F)c4)c3)cnc2[nH]1 [OR1014, 5-(2-{3-[2-(3-Trifluoromethyl-phenyl)-thioacetylamino]-phenyl}-ethyl)-1H-pyrrolo[2,3-b]pyridine-2-carboxylic acid methyl ester] | < 50 | < 50 | < 50 | < 50 | < 50 | < 50 | – | ≤ 6.00 | – | ≤ 6.00 | – | – | ≤ 6.00 | – | – | ≤ 6.00 | – | 6.00 to 7.00
CC(=O)c1cc2cc(CCc3cc(NC(=S)Nc4cccc(C(F)(F)F)c4)ccc3C)cnc2[nH]1 [OR1017, 1-{3-[2-(2-Acetyl-1H-pyrrolo[2,3-b]pyridin-5-yl)-ethyl]-4-methyl-phenyl}-3-(3-trifluoromethyl-phenyl)-thiourea] | < 50 | – | < 50 | < 50 | – | < 50 | ≤ 6.00 | ≤ 6.00 | – | ≤ 6.00 | – | 6.00 to 7.00 | ≤ 6.00 | – | – | – | – | –
COC(=O)c1cc2cc(CCc3cccc(CNC(=O)c4ccc(CN5CCN(C)CC5)c(C(F)(F)F)c4)c3)cnc2[nH]1 [OR1018, 5-[2-(3-{[4-(4-Methyl-piperazin-1-ylmethyl)-3-trifluoromethyl-benzoylamino]-methyl}-phenyl)-ethyl]-1H-pyrrolo[2,3-b]pyridine-2-carboxylic acid methyl ester] | < 50 | – | < 50 | ≥ 50 | – | < 50 | ≤ 6.00 | ≤ 6.00 | – | ≤ 6.00 | – | – | ≤ 6.00 | – | – | ≤ 6.00 | – | –
COC(=O)c1cc2cc(NCCc3cccc(NC(=O)c4ccc(CN5CCN(C)CC5)c(C(F)(F)F)c4)c3)cnc2[nH]1 [OR1019, 5-(2-{3-[4-(4-Methyl-piperazin-1-ylmethyl)-3-trifluoromethyl-benzoylamino]-phenyl}-ethylamino)-1H-pyrrolo[2,3-b]pyridine-2-carboxylic acid methyl ester] | ≥ 50 | – | < 50 | ≥ 50 | – | < 50 | ≤ 6.00 | ≤ 6.00 | – | ≤ 6.00 | 6.00 to 7.00 | – | – | – | – | ≤ 6.00 | – | –
COC(=O)c1cc2cc(CNCc3cccc(NC(=O)c4ccc(CN5CCN(C)CC5)c(C(F)(F)F)c4)c3)cnc2[nH]1 [OR1020, 5-({3-[4-(4-Methyl-piperazin-1-ylmethyl)-3-trifluoromethyl-benzoylamino]-benzylamino}-methyl)-1H-pyrrolo[2,3-b]pyridine-2-carboxylic acid methyl ester] | < 50 | – | < 50 | ≥ 50 | – | < 50 | ≤ 6.00 | ≤ 6.00 | – | ≤ 6.00 | – | – | ≤ 6.00 | – | – | ≤ 6.00 | – | –
COC(=O)c1cc2cc(CCc3ccc(C)c(NC(=O)c4ccc(CN5CCC(N(C)C)C5)c(C(F)(F)F)c4)c3)cnc2[nH]1 (centres unmarked) [OR1044, 5-(2-{5-[4-(3-Dimethylamino-pyrrolidin-1-ylmethyl)-3-trifluoromethyl-benzoylamino]-4-methyl-phenyl}-ethyl)-1H-pyrrolo[2,3-b]pyridine-2-carboxylic acid methyl ester] | ≥ 50 | – | < 50 | ≥ 50 | – | ≥ 50 | – | ≤ 6.00 | – | – | – | – | ≤ 6.00 | – | – | ≤ 6.00 | 6.00 to 7.00 | 6.00 to 7.00
COC(=O)c1cc2cc(CCc3cc(NC(=O)C4CCC(C(F)(F)F)CC4)ccc3C)cnc2[nH]1 (centres unmarked) [OR1057, 5-(2-{2-Methyl-5-[(4-trifluoromethyl-cyclohexanecarbonyl)-amino]-phenyl)-ethyl)-1H-pyrrolo[2,3-b]pyridine-2-carboxylic acid methyl ester] | ≥ 50 | ≥ 50 | < 50 | < 50 | ≥ 50 | < 50 | ≤ 6.00 | ≤ 6.00 | – | ≤ 6.00 | – | – | ≤ 6.00 | – | – | ≤ 6.00 | – | –
